Measured values taken from US8796324B2, “Substituted 2-acetamido-5-aryl-1,2,4-triazolones and use thereof” (Bayer Intellectual Property GmbH, priority 2009, dated 2014).

Columns and labels:
human V1a receptor = biological target: T1, human V1a receptor (Homo sapiens, UniProt P37288); assay: Cellular in vitro assay for determining the vasopressin receptor activity (aequorin luminescence); assay type: cell-based; conditions: CHO cell line transfected with the human V1a receptor; agonist [Arg8]-vasopressin; read-out: IC50 hV1a
T1 construct: expressed in transfected cells; host or cells: CHO K1 (constitutively expressing modified aequorin)
T1 sequence (P37288 whole entry): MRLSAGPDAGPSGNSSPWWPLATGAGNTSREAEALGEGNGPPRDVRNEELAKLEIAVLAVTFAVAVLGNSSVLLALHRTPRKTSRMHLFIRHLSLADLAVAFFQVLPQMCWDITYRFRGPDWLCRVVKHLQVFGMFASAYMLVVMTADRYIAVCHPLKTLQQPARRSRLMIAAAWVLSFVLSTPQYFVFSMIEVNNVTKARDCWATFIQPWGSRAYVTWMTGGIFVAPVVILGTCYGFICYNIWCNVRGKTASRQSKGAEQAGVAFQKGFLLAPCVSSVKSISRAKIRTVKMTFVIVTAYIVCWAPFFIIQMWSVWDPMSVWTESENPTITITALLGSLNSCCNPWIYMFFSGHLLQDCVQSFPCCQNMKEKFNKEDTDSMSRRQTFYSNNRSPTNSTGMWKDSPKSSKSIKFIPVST
Description: (§1) B-1. Cellular In Vitro Assay for Determining the Vasopressin Receptor Activity
(§2) The identification of agonists and antagonists of the V1a and V2 vasopressin receptors from humans and rats and also the quantification of the activity of the substances described here took place using recombinant cell lines. These cells derive originally from a hamster ovary epithelial cell (Chinese Hamster Ovary, CHO K1, ATCC: American Type Culture Collection, Manassas, Va. 20108, USA). The test cell lines constitutively express a modified form of the calcium-sensitive photoprotein aequorin, which, after reconstitution with the cofactor coelenterazine, emits light when there are increases in the free calcium concentration (Rizzuto R., Simpson A. W., Brini M., Pozzan T.; Nature 358 (1992) 325-327). In addition, the cells are stably transfected with the human or rat V1a or V2 receptors. In the case of the Gs-coupling V2 receptors, the cells are stably transfected with a further gene, which codes for the promiscuous Gα16 protein (Amatruda T. T., Steele D. A., Slepak V. Z., Simon M. I., Proc. Nat. Acad. Sci. USA 88 (1991), 5587-5591), either independently or as a fusion gene. The resulting vasopressin receptor test cells react to stimulation of the recombinantly expressed vasopressin receptors by intracellular release of calcium ions, which can be quantified by the resulting aequorin luminescence using a suitable luminometer (Milligan G., Marshall F., Rees S., Trends in Pharmaco. Sci. 17 (1996) 235-237).
(§3) On the day before the assay, the cells are plated out in culture medium (DMEM, 10% FCS, 2 mM glutamine, 10 mM HEPES) in 384-well microtiter plates and kept in a cell incubator (96% humidity, 5% v/v carbon dioxide, 37° C.). On the day of the assay, the culture medium is replaced by a Tyrode solution (140 mM sodium chloride, 5 mM potassium chloride, 1 mM magnesium chloride, 2 mM calcium chloride, 20 mM glucose, 20 mM HEPES), which additionally contains the cofactor coelenterazine (50 μM), and the microtiter plate is then incubated for a further 3-4 hours. The test substances in various concentrations are placed for 10 to 20 minutes in the wells of the microtiter plate before the agonist [Arg8]-vasopressin is added, and the resulting light signal is measured immediately in the luminometer. The IC50 values are calculated using the GraphPad PRISM computer program (Version 3.02).
(§4) The table below lists representative IC50 values for the compounds of the invention on the cell line transfected with the human V1a or V2 receptor: […]

human V2 receptor = biological target: T2, human V2 receptor (Homo sapiens, UniProt P30518); assay: as above; assay type: cell-based; conditions: CHO cell line transfected with the human V2 receptor (and Gα16); agonist [Arg8]-vasopressin; read-out: IC50 hV2
T2 construct: expressed in transfected cells; host or cells: CHO K1 (constitutively expressing modified aequorin; co-transfected with promiscuous G-alpha-16)
T2 sequence (P30518 whole entry): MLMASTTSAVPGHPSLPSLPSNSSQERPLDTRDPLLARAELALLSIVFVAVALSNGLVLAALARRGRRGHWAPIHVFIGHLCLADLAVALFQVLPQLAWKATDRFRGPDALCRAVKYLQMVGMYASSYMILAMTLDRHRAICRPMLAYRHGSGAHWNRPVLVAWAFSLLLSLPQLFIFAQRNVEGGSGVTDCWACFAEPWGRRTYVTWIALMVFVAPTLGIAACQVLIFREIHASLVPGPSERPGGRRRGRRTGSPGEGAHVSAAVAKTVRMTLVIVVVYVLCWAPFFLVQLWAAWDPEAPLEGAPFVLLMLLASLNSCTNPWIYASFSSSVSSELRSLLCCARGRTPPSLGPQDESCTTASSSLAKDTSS
Description: as §1, §2, §3, §4

## O=C(Cn1nc(-c2ccc(Cl)cc2)n(C[C@H](O)C(F)(F)F)c1=O)N[C@@H](CCO)c1ccccc1C(F)(F)F [Example 69, 2-{3-(4-Chlorophenyl)-5-oxo-4-[(2S)-3,3,3-trifluoro-2-hydroxypropyl]-4,5-dihydro-1H-1,2,4-triazol-1-yl}-N-{(1S)-3-hydroxy-1-[2-(trifluoromethyl)phenyl]propyl}acetamide]
Human V1a receptor
  IC50: 1.6 nM
Human V2 receptor
  IC50: 9.7 nM
